Experimental findings from PubChem BioAssay (NCI) are described below.

Test systems include 786-0 renal; EKVX NSCLC; HT29 colon; OVCAR-4 ovarian; RPMI-8226 leukemia; RXF 393 renal; SK-MEL-28 melanoma; SW-620 colon; U251 CNS; UACC-257 melanoma.
Holding throughout (experiment): NCI-60 cell line screen, 48 h

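Protocol summary: plate cells (96-well), add compound at 5 concentrations, incubate 48 h, interpolate endpoints linearly. The concentration for 50% growth inhibition is given as GI50. TGI: concentration producing complete growth inhibition.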 Where only a bound is given, the exact number is not on record here.

As to `CC(C)(C)c1ccc([I+]c2ccc(C(C)(C)C)cc2)cc1`, the GI50 is 1.69 µM in the assay with 786-0 renal; 1.42 µM in the assay with EKVX NSCLC; 1.34 µM in the assay on HT29 colon; 0.658 µM in the assay with OVCAR-4 ovarian; 0.389 µM in the assay with RPMI-8226 leukemia; 1.99 µM with RXF 393 renal. Moreover, the GI50 in the assay with SK-MEL-28 melanoma was 1.11 µM; in the assay with SW-620 colon, 1.56 µM; in the assay with U251 CNS, 1.47 µM; in the assay with UACC-257 melanoma it was 0.595 µM. The TGI stood at 3.77 µM with 786-0 renal; 5.24 µM in the assay on EKVX NSCLC; 4.78 µM with HT29 colon; 11 µM with OVCAR-4 ovarian; 1.99 µM in the assay with RPMI-8226 leukemia; 5.52 µM in the assay with RXF 393 renal. The TGI with SK-MEL-28 melanoma is 3.14 µM; in the assay with SW-620 colon it was 10.7 µM; with U251 CNS, 3.59 µM; with UACC-257 melanoma, 2.54 µM.

Regarding `[Cu+2].[O-]c1ccc2ccccc2c1N=Nc1ccccc1.[O-]c1ccc2ccccc2c1N=Nc1ccccc1`, the GI50 in the assay with 786-0 renal was 72.7 µM; in the assay on EKVX NSCLC, over 100 µM. The TGI in the assay on 786-0 renal, with EKVX NSCLC, with HT29 colon, in the assay on OVCAR-4 ovarian, in the assay on RPMI-8226 leukemia and with RXF 393 renal was over 100 µM throughout. Besides, the TGI with SK-MEL-28 melanoma, in the assay on SW-620 colon, in the assay with U251 CNS and in the assay with UACC-257 melanoma was over 100 µM throughout.

For `Brc1ccc([I+]c2ccc(Br)cc2)cc1`, the GI50 in the assay on 786-0 renal was 1.97 µM; with EKVX NSCLC, 1.02 µM; in the assay on HT29 colon it was 0.535 µM; with OVCAR-4 ovarian, 1.5 µM; with RPMI-8226 leukemia, 0.55 µM; with RXF 393 renal it was 2.67 µM. In addition, the GI50 with SK-MEL-28 melanoma is 1.43 µM; with SW-620 colon it was 0.992 µM; in the assay on U251 CNS, 1.32 µM; in the assay on UACC-257 melanoma, 2.06 µM. The TGI turned out to be 11.2 µM in the assay on 786-0 renal; 3.04 µM in the assay on EKVX NSCLC; 3.16 µM in the assay on HT29 colon; 10.6 µM with OVCAR-4 ovarian; 10.5 µM in the assay with RPMI-8226 leukemia; 11.5 µM in the assay with RXF 393 renal. Besides, the TGI with SK-MEL-28 melanoma amounted to 3.79 µM; in the assay on SW-620 colon, 4.31 µM; with U251 CNS, 2.65 µM; in the assay on UACC-257 melanoma, 5.53 µM.

In the case of `CS(=O)(=O)CCNCc1ccc(-c2ccc3ncnc(Nc4ccc(OCc5cccc(C(F)(F)F)c5)cc4)c3c2)o1`, the GI50 in the assay with 786-0 renal is 4.61 µM; in the assay with EKVX NSCLC, 6.03 µM; with HT29 colon it was 4.22 µM; in the assay on OVCAR-4 ovarian it was 8.68 µM; with RPMI-8226 leukemia, 5.7 µM; in the assay with RXF 393 renal it was 5.28 µM. Further, the GI50 with SK-MEL-28 melanoma is 4.29 µM; with SW-620 colon it was 5.2 µM; in the assay with U251 CNS, 4.22 µM; in the assay with UACC-257 melanoma, 3.79 µM. Further, the TGI with 786-0 renal was 8.85 µM; with EKVX NSCLC, over 23.3 µM; with HT29 colon it was 8.32 µM; with OVCAR-4 ovarian, over 25 µM; in the assay with RPMI-8226 leukemia, 16.5 µM; in the assay on RXF 393 renal, 13.6 µM. The TGI with SK-MEL-28 melanoma came to 8.23 µM; in the assay on SW-620 colon, 10.1 µM; with U251 CNS it was 9.51 µM; in the assay with UACC-257 melanoma it was 7.49 µM.

For `COC(CCP(=O)(c1ccccc1)c1ccccc1)(C(=O)c1ccccc1)c1ccccc1` (configuration not stated), the GI50 in the assay on 786-0 renal was 10.3 µM; in the assay with EKVX NSCLC it was 4.37 µM; in the assay on HT29 colon, 4.65 µM; in the assay with OVCAR-4 ovarian it was 5.57 µM; with RPMI-8226 leukemia it was 0.433 µM; in the assay on RXF 393 renal, 0.213 µM. The GI50 in the assay on SK-MEL-28 melanoma is 6.95 µM; in the assay with SW-620 colon, 3.86 µM; in the assay with U251 CNS it was 5.5 µM; with UACC-257 melanoma, 3.11 µM. Moreover, the TGI in the assay on 786-0 renal amounted to 28 µM; in the assay on EKVX NSCLC it was 16.9 µM; in the assay on HT29 colon, 19.1 µM; in the assay with OVCAR-4 ovarian, 21.4 µM; with RPMI-8226 leukemia, 2.6 µM; in the assay with RXF 393 renal, 0.917 µM. Also, the TGI with SK-MEL-28 melanoma was 19.9 µM; in the assay with SW-620 colon, 15.7 µM; with U251 CNS it was 18.4 µM; in the assay with UACC-257 melanoma it was 11.8 µM.

On to `C#C[C@]1(O)CC[C@H]2[C@@H]3CC=C4c5sc(N=C(N)N)nc5CC[C@]4(C)[C@H]3CC[C@@]21C`, for which the GI50 with 786-0 renal is 0.453 µM; in the assay with EKVX NSCLC, 1.25 µM; in the assay on HT29 colon it was 0.361 µM; with OVCAR-4 ovarian it was 1.33 µM; in the assay with RPMI-8226 leukemia, 0.153 µM; with RXF 393 renal, 0.141 µM. The GI50 was 0.4 µM with SK-MEL-28 melanoma, 0.541 µM in the assay on SW-620 colon, 0.388 µM in the assay on U251 CNS and 0.369 µM with UACC-257 melanoma. Also, the TGI is 1.81 µM in the assay with 786-0 renal; 2.85 µM in the assay with EKVX NSCLC; 1.69 µM in the assay with HT29 colon; 2.75 µM in the assay with OVCAR-4 ovarian; 0.864 µM in the assay on RPMI-8226 leukemia; 0.555 µM in the assay on RXF 393 renal. For the same compound, the TGI with SK-MEL-28 melanoma came to 1.61 µM; in the assay with SW-620 colon, 1.96 µM; with U251 CNS, 1.85 µM; in the assay on UACC-257 melanoma, 1.4 µM.

Take `CCC[C@H](N[C@@H]1CCc2cc(F)cc(F)c2C1)C(=O)Nc1cn(C(C)(C)CNCC(C)(C)C)cn1`: the GI50 in the assay with 786-0 renal was 13.5 µM; in the assay on EKVX NSCLC, 21 µM; in the assay on HT29 colon it was 11.7 µM; in the assay with OVCAR-4 ovarian it was 23.5 µM; in the assay with RPMI-8226 leukemia it was 5.98 µM; in the assay with RXF 393 renal it was 6.12 µM. The GI50 in the assay with SK-MEL-28 melanoma is 15.1 µM; in the assay on SW-620 colon, 25 µM; in the assay with U251 CNS, 15.7 µM; with UACC-257 melanoma, 13.2 µM. Further, the TGI was 54.2 µM in the assay on 786-0 renal; over 100 µM in the assay on EKVX NSCLC; 30 µM with HT29 colon; over 100 µM with OVCAR-4 ovarian; 34.8 µM with RPMI-8226 leukemia; 21.1 µM with RXF 393 renal. The TGI in the assay on SK-MEL-28 melanoma was 33.9 µM; in the assay with SW-620 colon, over 100 µM; in the assay on U251 CNS, 58.7 µM; with UACC-257 melanoma it was 37.7 µM.

As for `COc1ccc(-c2n[nH]nc2-c2csc3ccccc23)cc1OC`, the GI50 in the assay with 786-0 renal is 3.26 µM; with EKVX NSCLC, 3.42 µM; in the assay with HT29 colon, 2.78 µM; in the assay on OVCAR-4 ovarian it was 6.33 µM; in the assay on RPMI-8226 leukemia it was 3.64 µM; in the assay on RXF 393 renal, 2.11 µM. The GI50 in the assay on SK-MEL-28 melanoma was 4.63 µM; with SW-620 colon, 3.09 µM; with U251 CNS, 2.19 µM; in the assay on UACC-257 melanoma, 10.9 µM. In addition, the TGI in the assay with 786-0 renal was 22.6 µM; in the assay with EKVX NSCLC it was over 100 µM; in the assay with HT29 colon, 10.6 µM; in the assay with OVCAR-4 ovarian, over 100 µM; with RPMI-8226 leukemia, 59 µM; in the assay with RXF 393 renal, 6.71 µM. For the same compound, the TGI with SK-MEL-28 melanoma came to 48.5 µM; in the assay on SW-620 colon, 43.9 µM; with U251 CNS, 11.4 µM; in the assay on UACC-257 melanoma it was 55.6 µM.
